Like-named read-outs stand apart in the source and are kept apart here.
Tests used:
hCA IX = hCA IX (Homo sapiens, UniProt Q16790); test: Stopped flow CO2 hydrase assay, hCA IX inhibition; format: biochemical; conditions: stopped flow technique; incubation time of 6 h; mean from 3 different assays; read-out: KI CA IX
hCA XII = hCA XII (Homo sapiens, UniProt O43570); test: Stopped flow CO2 hydrase assay, hCA XII inhibition; format: biochemical; conditions: for Ki: stopped flow technique, incubation time of 6 h, mean from 3 different assays, read-out: KI CA XII
hCA II = hCA II (Homo sapiens, UniProt P00918); test: Stopped flow CO2 hydrase assay, hCA II inhibition; format: biochemical; conditions: stopped flow technique; incubation time of 6 h; mean from 3 different assays; read-out: KI CA II
hCA I = hCA I (Homo sapiens, UniProt P00915); test: Stopped flow CO2 hydrase assay, hCA I inhibition; format: biochemical
[1] = tested on: MCF-7 breast cancer cell line; test: MTT antiproliferative assay under hypoxic conditions; format: cell-based; conditions: Homo sapiens, MCF7, hypoxic conditions (CoCl2), 48 h exposure, mean ± SD of three experiments
Method: 2. Anti-proliferative action toward human breast cell line
The examined human breast cancer cell line (MCF-7) has been obtained from American Type Culture Collection (ATCC). Cells line was maintained as monolayers in Dulbecco’s Modified Eagle’s Medium (DMEM) supplemented with 10% FBS, 2 mM L-glutamine, 100 U/ml penicillin and 100µg/ml streptomycin sulfate. Cobalt (II) chloride (CoCl2) was utilized as an inducer of HIF-1α to furnish a chemically-induced hypoxia. Cells were sub-cultured with trypsine /EDTA solution, counted with haemocytometer and plated onto 96-well plates (5000 cells/well) and left overnight to form a semi-confluent monolayer. Cell monolayers were treated in quadrates with […]
for an exposure time of 48 h. At the end of exposure, MTT solution in PBS (5 mg/ml) was then added to all well including no cell blank and left to incubate for 90 min. The formation of formazan crystals were visually confirmed using phase contract microscopy. DMSO (100 µl/well) was added to dissolve the formazan crystals with shaking for 10 min after which the absorbance was read at […]

[2] = tested on: MCF-7 breast cancer cells; test: Annexin V-FITC/propidium iodide apoptosis assay; format: cell-based, human; conditions: treatment at IC50
Description: […]. This represents 57 folds total increase relative to the control in apoptotic cells.
IC50 values (concentration of sample
4. Annexin V-FITC Apoptosis Assay
Cells were then rinsed in binding

[3] = tested on: MCF-7 breast cancer cells; test: Cell cycle analysis by flow cytometry
[4] = stopped flow technique, incubation time of 6 h, mean from 3 different assays, read-out: KI CA I

hCA I, sequence (P00915 whole entry): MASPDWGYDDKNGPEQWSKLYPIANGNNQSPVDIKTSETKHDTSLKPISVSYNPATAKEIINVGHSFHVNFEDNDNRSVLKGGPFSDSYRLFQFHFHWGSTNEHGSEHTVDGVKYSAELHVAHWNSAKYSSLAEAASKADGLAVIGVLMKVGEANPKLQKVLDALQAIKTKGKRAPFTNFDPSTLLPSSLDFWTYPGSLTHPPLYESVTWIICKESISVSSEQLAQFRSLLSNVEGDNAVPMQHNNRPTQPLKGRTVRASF
hCA XII, sequence (O43570 25-354): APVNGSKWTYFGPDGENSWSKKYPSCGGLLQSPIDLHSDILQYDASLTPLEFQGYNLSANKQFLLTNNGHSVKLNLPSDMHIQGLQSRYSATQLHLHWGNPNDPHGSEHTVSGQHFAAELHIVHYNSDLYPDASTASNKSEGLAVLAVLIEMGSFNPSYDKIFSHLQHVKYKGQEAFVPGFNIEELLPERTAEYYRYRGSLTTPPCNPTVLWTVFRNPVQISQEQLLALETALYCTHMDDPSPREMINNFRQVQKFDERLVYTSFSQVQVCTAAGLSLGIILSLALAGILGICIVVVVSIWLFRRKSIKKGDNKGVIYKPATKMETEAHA

Ki (hCA IX)	Ki (hCA XII)	Ki (hCA II)	Ki (hCA I; [4])	diminished inhibition for hCA XII relative to the unsubstituted analogue 5a (hCA XII; ratio of KI values)	melting point	IC50 [1]	Compound	Ki (hCA I)	Apoptosis Total ([2]; MCF-7, AV-FITC/PI positive stained cells)	Apoptosis Early ([2]; MCF-7, AV-FITC/PI, lower right quadrant)	total increase in apoptotic cells relative to the control ([2]; MCF-7, AV-FITC/PI)	Necrosis ([2]; MCF-7, AV-FITC/PI, upper left quadrant)	Apoptosis Late ([2]; MCF-7, AV-FITC/PI, upper right quadrant)	decrease in G2-M phase compared to the control [3]	increase of cell population at Sub-G1 compared to the control [3]
0.12 µM	0.15 µM	> 100 µM	> 100 µM				O=C(CN1C(=O)CSC1=O)c1cc2ccccc2oc1=O [5a, 3–(2-Oxo-2–(2-oxo-2H-chromen-3-yl)ethyl)thiazolidine-2,4-dione]								
0.24 µM	0.31 µM	> 100 µM	> 100 µM	2 fold	239 to 241 °C		O=C(CN1C(=O)CSC1=O)c1cc2cc(Br)ccc2oc1=O [5b, 3–(2-(6-Bromo-2-oxo-2H-chromen-3-yl)-2-oxoethyl)thiazolidine-2,4-dione]								
0.82 µM	0.75 µM	> 100 µM	> 100 µM		249 to 251 °C	3.13 ± 0.18 µM	O=C(CN1C(=O)SC(=Cc2ccccc2)C1=O)c1cc2ccccc2oc1=O [10a, 5-Benzylidene-3–(2-oxo-2–(2-oxo-2H-chromen-3-yl)ethyl)thiazolidine-2,4-dione]								
4.3 µM	4 µM	> 100 µM	> 100 µM		227 to 229 °C		Cc1ccc(C=C2SC(=O)N(CC(=O)c3cc4ccccc4oc3=O)C2=O)cc1 [10b, 5–(4-Methylbenzylidene)-3–(2-oxo-2–(2-oxo-2H-chromen-3-yl)ethyl)thiazolidine-2,4-dione]								
5.8 µM	4.5 µM	> 100 µM	> 100 µM		257 to 259 °C		COc1ccc(C=C2SC(=O)N(CC(=O)c3cc4ccccc4oc3=O)C2=O)cc1 [10c, 5–(4-Methoxybenzylidene)-3–(2-oxo-2–(2-oxo-2H-chromen-3-yl)ethyl)thiazolidine-2,4-dione]								
8.4 µM	6.2 µM	> 100 µM	> 100 µM		238 to 240 °C		COc1ccc(OC)c(C=C2SC(=O)N(CC(=O)c3cc4ccccc4oc3=O)C2=O)c1 [10d, 5–(2,5-Dimethoxybenzylidene)-3–(2-oxo-2–(2-oxo-2H-chromen-3-yl)ethyl)thiazolidine-2,4-dione]								
12.3 µM	8 µM	> 100 µM	> 100 µM		263 to 265 °C		O=C(CN1C(=O)SC(=Cc2ccc([N+](=O)[O-])cc2)C1=O)c1cc2ccccc2oc1=O [10e, 5–(4-Nitrobenzylidene)-3–(2-oxo-2–(2-oxo-2H-chromen-3-yl)ethyl)thiazolidine-2,4-dione]								
2.2 µM	3.8 µM	> 100 µM	> 100 µM		208 to 211 °C		O=C(CN1C(=O)SC(=Cc2ccccc2Cl)C1=O)c1cc2ccccc2oc1=O [10f, 5–(2-Chlorobenzylidene)-3–(2-oxo-2–(2-oxo-2H-chromen-3-yl)ethyl)thiazolidine-2,4-dione]								
2.3 µM	4.1 µM	> 100 µM	> 100 µM		230 to 232 °C		O=C(CN1C(=O)SC(=Cc2ccccc2Br)C1=O)c1cc2ccccc2oc1=O [10g, 5–(2-Bromobenzylidene)-3–(2-oxo-2–(2-oxo-2H-chromen-3-yl)ethyl)thiazolidine-2,4-dione]								
0.93 µM	0.87 µM	> 100 µM	> 100 µM		252 to 254 °C	11.1 ± 0.65 µM	O=C(CN1C(=O)SC(=Cc2ccccc2)C1=O)c1cc2cc(Br)ccc2oc1=O [10h, 5-Benzylidene-3–(2-(6-bromo-2-oxo-2H-chromen-3-yl)-2-oxoethyl)thiazolidine-2,4-dione]								
6.2 µM	2.3 µM	> 100 µM	> 100 µM		224 to 225 °C		Cc1ccc(C=C2SC(=O)N(CC(=O)c3cc4cc(Br)ccc4oc3=O)C2=O)cc1 [10i, 3–(2-(6-Bromo-2-oxo-2H-chromen-3-yl)-2-oxoethyl)-5–(4-methylbenzylidene)thiazolidine-2,4-dione]								
8.9 µM	4.9 µM	> 100 µM	> 100 µM		245 to 247 °C		COc1ccc(C=C2SC(=O)N(CC(=O)c3cc4cc(Br)ccc4oc3=O)C2=O)cc1 [10j, 3–(2-(6-Bromo-2-oxo-2H-chromen-3-yl)-2-oxoethyl)-5–(4-methoxybenzylidene)thiazolidine-2,4-dione]								
16.4 µM	6.6 µM	> 100 µM	> 100 µM		204 to 206 °C		COc1ccc(OC)c(C=C2SC(=O)N(CC(=O)c3cc4cc(Br)ccc4oc3=O)C2=O)c1 [10k, 3–(2-(6-Bromo-2-oxo-2H-chromen-3-yl)-2-oxoethyl)-5–(2,5-dimethoxybenzylidene) thiazolidine-2,4-dione]								
18.2 µM	10.4 µM	> 100 µM	> 100 µM		229 to 231 °C		O=C(CN1C(=O)SC(=Cc2ccc([N+](=O)[O-])cc2)C1=O)c1cc2cc(Br)ccc2oc1=O [10l, 3–(2-(6-Bromo-2-oxo-2H-chromen-3-yl)-2-oxoethyl)-5–(4-nitrobenzylidene)thiazolidine-2,4-dione]								
2.9 µM	3.2 µM	> 100 µM	> 100 µM		192 to 194 °C		O=C(CN1C(=O)SC(=Cc2ccccc2Cl)C1=O)c1cc2cc(Br)ccc2oc1=O [10m, 3–(2-(6-Bromo-2-oxo-2H-chromen-3-yl)-2-oxoethyl)-5–(2-chlorobenzylidene)thiazolidine-2,4-dione]								
3.4 µM	2.8 µM	> 100 µM	> 100 µM		208 to 210 °C		O=C(CN1C(=O)SC(=Cc2ccccc2Br)C1=O)c1cc2cc(Br)ccc2oc1=O [10n, 3–(2-(6-Bromo-2-oxo-2H-chromen-3-yl)-2-oxoethyl)-5–(2-bromobenzylidene)thiazolidine-2,4-dione]								
							O=C(CN1C(=O)SC(=Cc2cccs2)C1=O)c1cc2ccccc2oc1=O [11a, 3–(2-Oxo-2–(2-oxo-2H-chromen-3-yl)ethyl)-5-(thiophen-2-ylmethylene)thiazolidine-2,4-dione]	> 100 µM	29.93%	4.23%	57 folds	17.39%	25.7%	2.6 folds	19.7 folds
0.79 µM	1.1 µM	> 100 µM	> 100 µM		227 to 229 °C	4.14 ± 0.24 µM	Cc1ccc(C=C2SC(=O)N(CC(=O)c3cc4ccccc4oc3=O)C2=O)o1 [11b, 5-((5-Methylfuran-2-yl)methylene)-3–(2-oxo-2–(2-oxo-2H-chromen-3-yl)ethyl)thiazolidine-2,4-dione]								
0.59 µM	0.44 µM	> 100 µM	> 100 µM		255 to 257 °C	9.56 ± 0.56 µM	O=C(CN1C(=O)SC(=Cc2cccs2)C1=O)c1cc2cc(Br)ccc2oc1=O [11c, 3–(2-(6-Bromo-2-oxo-2H-chromen-3-yl)-2-oxoethyl)-5-(thiophen-2-ylmethylene)thiazolidine-2,4-dione]								
0.91 µM	0.82 µM	> 100 µM	> 100 µM		236 to 238 °C	1.65 ± 0.1 µM	Cc1ccc(C=C2SC(=O)N(CC(=O)c3cc4cc(Br)ccc4oc3=O)C2=O)o1 [11d, 3–(2-(6-Bromo-2-oxo-2H-chromen-3-yl)-2-oxoethyl)-5-((5-methylfuran-2-yl)methylene)thiazolidine-2,4-dione]								

From paper PMC8745369, “Discovery of 2,4-thiazolidinedione-tethered coumarins as novel selective inhibitors for carbonic anhydrase IX and XII isoforms” (Journal of Enzyme Inhibition and Medicinal Chemistry, 2022)
